In article PMC9749938, “Alkyltriphenylphosphonium turns naphthoquinoneimidazoles into potent membrane depolarizers against mycobacteria” (RSC Medicinal Chemistry, 2022):
In brackets after ≈: the same amount, converted by molar mass. Read-outs that look alike come from different tables or passages of the source.

What was measured:
M. bovis BCG [1] = test: microbe, parasite or virus in culture; assay type: cell-based, Mycobacterium bovis BCG; conditions: for MIC50 / MIC90 / IC50: Mycobacterium tuberculosis variant bovis BCG, BCG; for MIC50: read-out: M. bovis BCG MIC50, concentration reducing growth by 50% vs untreated controls; for M. bovis BCG MIC50: concentration reducing growth by 50% vs untreated controls; for M. bovis BCG MIC90: concentration reducing growth by 90% vs untreated controls; for IC50: read-out: M. bovis BCG MIC50
Vero E6 cells = test: Cytotoxicity on Vero E6 cells; assay type: cell-based, African green monkey; conditions: Chlorocebus sabaeus, Vero C1008; 48 h; reduces growth of Vero E6 by 50% vs untreated controls
M. bovis BCG [2] = test: microbe, parasite or virus in culture; assay type: cell-based; conditions: Mycobacterium tuberculosis variant bovis BCG, 120 h
M. bovis BCG-pfurA-RFP = assay type: cell-based, Mycobacterium bovis BCG; conditions: 24 h, 37 °C
M. bovis BCG [3] = assay type: cell-based, Mycobacterium bovis BCG; conditions: 4× MIC90, after 24 hours
M. bovis BCG [4] = assay type: cell-based, Mycobacterium bovis BCG
M. bovis BCG [5] = assay type: cell-based, Mycobacterium bovis BCG; conditions: 0.5× to 2× MIC90, 1.5 h + 30 min dye
M. bovis BCG [6] = assay type: cell-based, Mycobacterium bovis BCG; conditions: 4× MIC90, time course to 24 h and after
[7] = Horseradish peroxidase-phenol red assay for H2O2 generation; assay type: biochemical; conditions: in vitro, with DTT
M. bovis BCG [8] = assay type: cell-based, Mycobacterium bovis BCG; conditions: 4× MIC90, up to 24 h
M. tb H37Rv = test: MIC determination by broth dilution on M. tb H37Rv; assay type: cell-based; conditions: Mycobacterium tuberculosis
[9] = Aqueous solubility (Multiscreen solubility filter plates); assay type: physicochemical; conditions: pH 7.4, 24 h agitation
M. bovis BCG-piniBAC-RFP = assay type: cell-based, Mycobacterium bovis BCG; conditions: 24 h, various concentrations
M. bovis BCG [10] = assay type: cell-based, Mycobacterium bovis BCG; conditions: 4× MIC90, up to 24 h; remark: listed apart in the source
[11] = test system: inverted membrane vesicles of wild-type M. smegmatis mc^24517; test: NADH oxidation in inverted membrane vesicles, WT; assay type: biochemical; conditions: for EC50: WT M. smegmatis mc^24517, read-out: EC50 of activation of NADH oxidation, WT IMV
[12] = read-out: M. bovis BCG MIC90, concentration reducing growth by 90% vs untreated controls, broth dilution
[13] = Universal buffer with 1% DMSO, pH 7.4, 25 °C
[14] = read-out: MIC90 of control compounds (Fig. 4 legend), controls of redox assays, organism not restated

## Cc1nc2c(n1CCC[P+](c1ccccc1)(c1ccccc1)c1ccccc1)C(=O)c1ccccc1C2=O.[I-] [Compound 3]
M. bovis BCG [1]; broth dilution
  MIC50: 4 µM
  M. bovis BCG MIC50: 4.0 (4.0, 4.0) μM
M. bovis BCG [1]; [12]
  MIC90: 5.6 µM
Vero E6 cells
  IC50: > 400 µM

## Cc1nc2c(n1CCCCC[P+](c1ccccc1)(c1ccccc1)c1ccccc1)C(=O)c1ccccc1C2=O.[I-] [Compound 4]
M. bovis BCG [1]; broth dilution
  MIC50: 2.4 µM
  M. bovis BCG MIC90: 4.6 (4.6, 4.6) μM
M. bovis BCG [1]; [12]
  MIC90: 4.6 µM
Vero E6 cells
  IC50: > 400 µM

## Cc1nc2c(n1CCCCCCC[P+](c1ccccc1)(c1ccccc1)c1ccccc1)C(=O)c1ccccc1C2=O.[I-] [Compound 5]
M. bovis BCG [1]; broth dilution
  MIC50: 1.2 µM
  M. bovis BCG MIC50: 1.2 (1.2, 1.2) μM
M. bovis BCG [1]; [12]
  MIC90: 2.3 µM
Vero E6 cells
  IC50: 48.4 µM

## Cc1nc2c(n1CCCCCCCCC[P+](c1ccccc1)(c1ccccc1)c1ccccc1)C(=O)c1ccccc1C2=O.[I-] [Compound 6]
M. bovis BCG [2]; read-out: M. bovis BCG MBC90
  MBC: 1.6 µM
M. bovis BCG [2]; read-out: M. bovis BCG MBC99
  MBC: 3.1 µM
M. bovis BCG [2]; read-out: M. bovis BCG MBC99.9
  MBC: 6.2 µM
M. bovis BCG-pfurA-RFP
  Induction of pfurA promoter (RFP fluorescence): not observed
M. bovis BCG [3]
  CFU count of treated cultures: remained relatively constant
M. bovis BCG [4]
  Time-kill: CFU over 21 days: steady decrease of CFU up to day 8
M. bovis BCG [5]
  ROS formation in cultures (CellROX Green): negligible levels of ROS
M. bovis BCG [6]
  Intracellular ATP levels: initial drop in ATP levels
[7]
  H2O2 generation, HRP-phenol red assay: negligible H2O2 generation
M. bovis BCG [8]
  Membrane potential (DiOC2(3) red/green ratio): rapid and sustained loss of membrane potential
M. tb H37Rv
  MIC50: 0.37 µM
  MIC90: 0.8 µM
[9]; 25 °C
  solubility at 24 h: 105.8 µM
[9]; [13]
  solubility at 24 h: 106 µM
M. bovis BCG [1]; broth dilution
  MIC50: 0.59 µM
  M. bovis BCG MIC50: 0.58 (0.6, 0.59) μM
M. bovis BCG [1]; [12]
  MIC90: 1 µM
M. bovis BCG-piniBAC-RFP
  Induction of piniBAC promoter (RFP fluorescence): no increase in fluorescence
Vero E6 cells
  IC50: 12.4 µM
M. bovis BCG [10]
  Membrane permeabilization (SYTO9/PI green/red ratio): not accompanied by membrane permeabilization

## Cc1nc2c(n1CCCCCCCCCCC[P+](c1ccccc1)(c1ccccc1)c1ccccc1)C(=O)c1ccccc1C2=O.[I-] [Compound 7]
M. bovis BCG [2]; read-out: M. bovis BCG MBC90
  MBC: 1.6 µM
M. bovis BCG [2]; read-out: M. bovis BCG MBC99
  MBC: 3.1 µM
M. bovis BCG [2]; read-out: M. bovis BCG MBC99.9
  MBC: 6.2 µM
M. bovis BCG-pfurA-RFP
  Induction of pfurA promoter (RFP fluorescence): not observed
[11]; WT M. smegmatis
  Activation of NADH oxidation, WT IMV: negligible activation of NADH oxidation
M. bovis BCG [3]
  CFU count of treated cultures: remained relatively constant
M. bovis BCG [5]
  ROS formation in cultures (CellROX Green): negligible levels of ROS
M. bovis BCG [6]
  Intracellular ATP levels: initial drop in ATP levels
[7]
  H2O2 generation, HRP-phenol red assay: negligible H2O2 generation
M. bovis BCG [8]
  Membrane potential (DiOC2(3) red/green ratio): rapid and sustained loss of membrane potential
M. tb H37Rv
  MIC50: 1.15 µM
  MIC90: 1.8 µM
[9]; [13]
  solubility at 24 h: 27 µM
M. bovis BCG [1]
  IC50: 550 nM
M. bovis BCG [1]; broth dilution
  MIC50: 0.5 µM
M. bovis BCG [1]; [12]
  MIC90: ≤ 1 µM
M. bovis BCG-piniBAC-RFP
  Induction of piniBAC promoter (RFP fluorescence): no increase in fluorescence
Vero E6 cells
  IC50: 5.6 µM
M. bovis BCG [10]
  Membrane permeabilization (SYTO9/PI green/red ratio): not accompanied by membrane permeabilization

## CCCCCCC[P+](c1ccccc1)(c1ccccc1)c1ccccc1.[I-] [Compound 8]
M. bovis BCG [8]
  Membrane potential (DiOC2(3) red/green ratio): behaved similarly to 6 and 7
M. bovis BCG [1]; broth dilution
  MIC50: 5.5 µM
  M. bovis BCG MIC90: 10.5 (10.2, 10.8) μM
M. bovis BCG [1]; [12]
  MIC90: 10.5 µM

## CCCCCCCCCCC[P+](c1ccccc1)(c1ccccc1)c1ccccc1.[I-] [Compound 9]
M. bovis BCG [8]
  Membrane potential (DiOC2(3) red/green ratio): behaved similarly to 6 and 7
M. bovis BCG [1]; broth dilution
  MIC50: 2.1 µM
M. bovis BCG [1]; [12]
  MIC90: 2.8 µM

## Cc1nc2ccccc2n1CCCCCCC[P+](c1ccccc1)(c1ccccc1)c1ccccc1.[I-] [Compound 10]
M. bovis BCG [1]; broth dilution
  MIC50: 3.8 µM
  M. bovis BCG MIC50: 3.8 (3.8, 3.8) μM
M. bovis BCG [1]; [12]
  MIC90: 5.6 µM
Vero E6 cells
  IC50: 86.4 µM

## Cc1nc2ccccc2n1CCCCCCCCCCC[P+](c1ccccc1)(c1ccccc1)c1ccccc1.[I-] [Compound 11]
M. bovis BCG [1]; broth dilution
  MIC50: 0.9 µM
  M. bovis BCG MIC90: 1.4 (1.4, 1.4) μM
M. bovis BCG [1]; [12]
  MIC90: 1.4 µM
Vero E6 cells
  IC50: 11.5 µM

## Cc1cc(=O)n(CCCCCCC[P+](c2ccccc2)(c2ccccc2)c2ccccc2)c2c1C(=O)c1ccccc1C2=O.[I-] [Compound 12]
M. bovis BCG [1]; broth dilution
  MIC50: 1 µM
  M. bovis BCG MIC90: 1.4 (1.4, 1.4) μM
M. bovis BCG [1]; [12]
  MIC90: 1.4 µM
Vero E6 cells
  IC50: 5.9 µM

## Cc1cc(=O)n(CCCCCCCCCCC[P+](c2ccccc2)(c2ccccc2)c2ccccc2)c2c1C(=O)c1ccccc1C2=O [Compound 13]
M. bovis BCG [1]; broth dilution
  MIC50: 3.8 µM
M. bovis BCG [1]; [12]
  MIC90: 5.7 µM
Vero E6 cells
  IC50: 2.1 µM

## O=C1c2ccccc2C(=O)c2c1nc(C(F)(F)F)n2CCCCCCCCCCC[P+](c1ccccc1)(c1ccccc1)c1ccccc1 [Compound 14]
M. bovis BCG [1]; broth dilution
  MIC50: 1.8 µM
M. bovis BCG [1]; [12]
  MIC90: 2.8 µM
Vero E6 cells
  IC50: 5.6 µM

## Cc1nc2c(n1CCCCCCCCCCC[P+](c1ccccc1)(c1ccccc1)c1ccccc1)C(=O)c1cccnc1C2=O [Compound 15]
M. bovis BCG [1]
  IC50: 600 nM
M. bovis BCG [1]; broth dilution
  MIC50: 0.65 µM
M. bovis BCG [1]; [12]
  MIC90: 1.2 µM
Vero E6 cells
  IC50: 5.4 µM

## Cc1nc2c(n1CCCCCCC[n+]1ccccc1)C(=O)c1ccccc1C2=O.[I-] [Compound 16]
M. bovis BCG [1]; broth dilution
  MIC50: 28.7 µM
  M. bovis BCG MIC50: 28.7 (32.5, 25.0) μM
  M. bovis BCG MIC90: 48.5 (48.0, 49.0) μM
M. bovis BCG [1]; [12]
  MIC90: 48.5 µM

## Cc1nc2c(n1CCCCCCC[P+](C1CCCCC1)(C1CCCCC1)C1CCCCC1)C(=O)c1ccccc1C2=O.[I-] [Compound 17]
M. bovis BCG [1]; broth dilution
  MIC50: 1.3 µM
  M. bovis BCG MIC50: 1.3 (1.3, 1.3) μM
M. bovis BCG [1]; [12]
  MIC90: 2.5 µM
Vero E6 cells
  IC50: 24.4 µM

## Cc1nc2c(n1CCCCCCCCCCC[P+](C1CCCCC1)(C1CCCCC1)C1CCCCC1)C(=O)c1ccccc1C2=O.[I-] [Compound 18]
M. bovis BCG [1]; broth dilution
  MIC50: 0.6 µM
  M. bovis BCG MIC50: 0.6 (0.6, 0.6) μM
M. bovis BCG [1]; [12]
  MIC90: 0.9 µM
Vero E6 cells
  IC50: 4.1 µM

## CCCCCC[P+](CCCCCC)(CCCCCC)CCCCCCCn1c(C)nc2c1C(=O)c1ccccc1C2=O.[I-] [Compound 19]
M. bovis BCG [1]; broth dilution
  MIC50: 0.7 µM
  M. bovis BCG MIC50: 0.7 (0.7, 0.7) μM
  M. bovis BCG MIC90: 1.4 (1.4, 1.4) μM
M. bovis BCG [1]; [12]
  MIC90: 1.4 µM
Vero E6 cells
  IC50: 5.2 µM

## CCCCn1c2c([n+](C3CCC4(CCCCC4)CC3)c1C)C(=O)c1ccccc1C2=O.[Br-] [Compound 44, reference compound]
M. bovis BCG-pfurA-RFP
  Induction of pfurA promoter (RFP fluorescence): discernible dose-dependent increase in the fluorescence signal
[11]
  EC50: 760 nM
M. bovis BCG [5]
  ROS formation in cultures (CellROX Green): dose-dependent ROS formation
M. bovis BCG [1]; [14]
  MIC90: 0.32 µM

## CCCCCCCCn1c2c([n+](CCCC)c1C)C(=O)c1ccccc1C2=O.[Br-] [Compound 45, reference compound]
M. bovis BCG-pfurA-RFP
  Induction of pfurA promoter (RFP fluorescence): discernible dose-dependent increase in the fluorescence signal
[11]
  EC50: 200 nM
M. bovis BCG [5]
  ROS formation in cultures (CellROX Green): dose-dependent ROS formation
M. bovis BCG [1]; [14]
  MIC90: 0.32 µM

## NNC(=O)c1ccncc1 [INH, isoniazid, reference compound]
M. bovis BCG [4]
  Time-kill: CFU over 21 days: rapid decrease in CFU in the first two time points
M. bovis BCG [1]; [14]
  MIC90: 3.7 µM (≈ 0.507 µg/mL)
M. bovis BCG-piniBAC-RFP
  Induction of piniBAC promoter (RFP fluorescence): increased piniBAC promoter activity

## O=C1C=CC(=O)c2ccccc21 [NQ, 1,4-Naphthoquinone, reference compound]
M. bovis BCG [1]; [14]
  MIC90: 100 µM (≈ 15.8 µg/mL)
